According to ChEMBL document CHEMBL1201862, “PubChem BioAssay data set” (2004):
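Briefly, cells in 96-well plates were exposed to five compound concentrations for 48 h, and endpoints were estimated by linear interpolation. GI50 is the concentration that inhibits growth by half.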 The source made the active and inactive calls. No stated cut-off is given here; in the data, active = GI50 up to about 1.1 µM and inactive = higher. Where a SMILES comes first, the peptide text is derived from it. Square brackets hold non-standard residues; d marks the D form. Peptide text beside a SMILES is read from it. The star is where a group is joined. * marks the point of attachment. Tyr(3-Br) = N[C@@H](Cc1ccc(O)c(Br)c1)C(=O)O; Boc = CC(C)(C)OC(=O)*

Assays:
Experiment in all cases: growth of human tumour cells (NCI), 48 h
HCT-15 = test system: HCT-15
OVCAR-3 = test system: OVCAR-3
IGROV-1 = test system: IGROV-1
SK-MEL-5 = test system: SK-MEL-5
CAKI-1 = test system: CAKI-1
A498 = test system: A498
MDA-MB-231 = test system: MDA-MB-231
HOP-92 = test system: HOP-92
MCF7 = test system: MCF7
HOP-62 = test system: HOP-62
NCI/ADR-RES = test system: NCI/ADR-RES
M14 = test system: M14
HCC 2998 = test system: HCC 2998
786-0 = test system: 786-0
PC-3 = test system: PC-3
SNB-75 = test system: SNB-75
KM12 = test system: KM12
MDA-N = test system: MDA-N
CCRF-CEM = test system: CCRF-CEM

| SMILES | GI50 (HCT-15) [µM] | GI50 (OVCAR-3) | GI50 (IGROV-1) | GI50 (SK-MEL-5) | GI50 (CAKI-1) | GI50 (A498) | GI50 (MDA-MB-231) | GI50 (HOP-92) | GI50 (MCF7) | GI50 (HOP-62) | GI50 (NCI/ADR-RES) | GI50 (M14) | GI50 (HCC 2998) | GI50 (786-0) | GI50 (PC-3) | GI50 (SNB-75) | GI50 (KM12) | GI50 (MDA-N) | GI50 (CCRF-CEM) |
| --- | --- | --- | --- | --- | --- | --- | --- | --- | --- | --- | --- | --- | --- | --- | --- | --- | --- | --- | --- |
| CC1=NC2=Nc3nc(C)cc[n+]3CN2C=C1 | 88.5 | > 100 µM (inactive) | 39.9 µM (inactive) | 53.3 µM (inactive) | 0.144 µM (active) | > 100 µM (inactive) | 54.7 µM (inactive) | 95.7 µM (inactive) | > 100 µM (inactive) | 89.3 µM (inactive) | > 100 µM (inactive) | > 100 µM (inactive) | 58.2 µM (inactive) | 48.3 µM (inactive) | > 100 µM (inactive) | > 100 µM (inactive) |  |  |  |
| COC(=O)[C@H](Cc1ccc(O)c(Br)c1)NC(=O)[C@H](Cc1ccc(O)cc1)NC(=O)OC(C)(C)C (Boc-Tyr-[Tyr(3-Br)]-OMe) | 21.6 | 20.7 µM (inactive) | 37 µM (inactive) |  | > 100 µM (inactive) | > 100 µM (inactive) |  | 28.6 µM (inactive) | 31.3 µM (inactive) | > 100 µM (inactive) | > 100 µM (inactive) | 33.1 µM (inactive) | 31.6 µM (inactive) | 41.3 µM (inactive) | > 100 µM (inactive) | 92 µM (inactive) | 40.6 µM (inactive) | > 100 µM (inactive) | 23.8 µM (inactive) |
| CCOC(=O)c1c2c(n(Cc3ccccc3)c1C)C(=O)C(=O)c1ccccc1-2 | 0.366 | 0.0615 µM (active) | 1.15 µM (inactive) | 0.295 µM (active) | 0.5 µM (active) |  | 0.351 µM (active) | 0.802 µM (active) | 0.293 µM (active) | 0.238 µM (active) | 0.466 µM (active) | 0.452 µM (active) | 0.56 µM (active) | 0.56 µM (active) | 0.807 µM (active) | 0.309 µM (active) | 0.574 µM (active) |  | 0.134 µM (active) |
| Cc1ccc(Oc2cc(C)ccc2P(=O)(O)O)cc1 | > 100 | > 100 µM (inactive) | > 100 µM (inactive) | > 100 µM (inactive) | > 100 µM (inactive) |  | > 100 µM (inactive) | > 100 µM (inactive) | > 100 µM (inactive) | > 100 µM (inactive) |  | > 100 µM (inactive) | > 100 µM (inactive) | > 100 µM (inactive) | > 100 µM (inactive) | > 100 µM (inactive) | > 100 µM (inactive) | > 100 µM (inactive) | > 100 µM (inactive) |
| CC(C)(C)c1ccc(O)c(C(c2ccc([N+](=O)[O-])cc2)c2cc(C(C)(C)C)ccc2O)c1 | 2.13 | 1.79 µM (inactive) | 2.15 µM (inactive) |  | 1.51 µM (inactive) | 2.11 µM (inactive) | 1.87 µM (inactive) | 2.02 µM (inactive) | 2 µM (inactive) | 1.85 µM (inactive) | 2.73 µM (inactive) | 1.68 µM (inactive) | 1.95 µM (inactive) | 2.04 µM (inactive) | 1.85 µM (inactive) | 2.05 µM (inactive) | 1.89 µM (inactive) |  | 2.98 µM (inactive) |
| COC(=O)C(Cc1c[nH]c2ccccc12)NC(=O)C(Cc1c[nH]c2ccccc12)NC(=O)C(Cc1c[nH]c2ccccc12)NC(=O)OC(C)(C)C (stereo not drawn) (Boc-Trp-Trp-Trp-OMe; configuration not given here) | 19.5 |  | 18.7 µM (inactive) | 47.9 µM (inactive) |  | 53.5 µM (inactive) | 30.1 µM (inactive) | 13.2 µM (inactive) | > 10 µM (inactive) | 17.9 µM (inactive) |  | 37.3 µM (inactive) | 18.6 µM (inactive) | 17.8 µM (inactive) | 15.9 µM (inactive) | 19.8 µM (inactive) | 21.5 µM (inactive) | 20 µM (inactive) |  |
| O=C(O)c1ccc(/C=N\N(CCO)C2=NCCN2)cc1 | > 100 | > 100 µM (inactive) | > 100 µM (inactive) | > 100 µM (inactive) |  |  | > 100 µM (inactive) | > 100 µM (inactive) | > 100 µM (inactive) | > 100 µM (inactive) |  | > 100 µM (inactive) | > 100 µM (inactive) | > 100 µM (inactive) | > 100 µM (inactive) | 66.5 µM (inactive) | > 100 µM (inactive) | > 100 µM (inactive) | > 100 µM (inactive) |
| CC(=O)Nc1sccc1S(=O)(=O)c1ccc(Cl)cc1 | > 100 | > 100 µM (inactive) | > 100 µM (inactive) | > 100 µM (inactive) | > 100 µM (inactive) |  | > 100 µM (inactive) | > 100 µM (inactive) | > 100 µM (inactive) |  | > 100 µM (inactive) | > 100 µM (inactive) | > 100 µM (inactive) | > 100 µM (inactive) | > 100 µM (inactive) | 55.6 µM (inactive) | > 100 µM (inactive) |  | > 100 µM (inactive) |
| OCN(CO)c1ccc2c(c1)Cc1cc(F)ccc1-2 | 19.2 | 13.9 µM (inactive) | 19.3 µM (inactive) | 11.2 µM (inactive) | 20 µM (inactive) |  | 16.4 µM (inactive) |  | 18.6 µM (inactive) | 44.1 µM (inactive) | 20.2 µM (inactive) | 21 µM (inactive) |  | 30.1 µM (inactive) | 16.7 µM (inactive) | 19.1 µM (inactive) | 17.8 µM (inactive) |  |  |
| COc1cc(/C=C/C=C2\CC(C)C/C(=C\C=C\c3ccc(O)c(OC)c3)C2=O)ccc1O (stereo not given) | 25.1 | 10.8 µM (inactive) | 8.41 µM (inactive) | 10.5 µM (inactive) | 12.1 µM (inactive) |  | 17 µM (inactive) | 7.23 µM (inactive) | 5.6 µM (inactive) | 17.4 µM (inactive) | 25.1 µM (inactive) | 15.4 µM (inactive) | 17.5 µM (inactive) | 12.4 µM (inactive) | 11.3 µM (inactive) | 15.1 µM (inactive) | 31.7 µM (inactive) |  | 1.14 µM (inactive) |
| CC(C)(O)/C=C\P(C)(=O)c1ccccc1 (stereo not given) | > 100 | > 100 µM (inactive) | > 100 µM (inactive) | > 100 µM (inactive) | > 100 µM (inactive) |  |  | > 100 µM (inactive) | > 100 µM (inactive) | > 100 µM (inactive) | > 100 µM (inactive) | > 100 µM (inactive) | > 100 µM (inactive) | > 100 µM (inactive) | > 100 µM (inactive) | > 100 µM (inactive) | > 100 µM (inactive) | > 100 µM (inactive) |  |
| COC(=O)CCC(NC(=O)C(C)NC(=O)COC1C(O)C(OC(=O)CCNc2c3ccccc3nc3cccc([N+](=O)[O-])c23)OC(OCc2ccccc2)C1NC(C)=O)C(N)=O (stereo not given) | 3.21 | 5.42 µM (inactive) | > 10 µM (inactive) | 1.61 µM (inactive) |  | > 10 µM (inactive) | 3.48 µM (inactive) | 4.43 µM (inactive) | 2.28 µM (inactive) | 3.7 µM (inactive) |  | 2.79 µM (inactive) | 2.76 µM (inactive) | 3.56 µM (inactive) | > 10 µM (inactive) | > 10 µM (inactive) | 5.71 µM (inactive) | 2.24 µM (inactive) | > 10 µM (inactive) |
